Measured values from PMC10573254, “Development of Novel Class of Phenylpyrazolo[3,4-d]pyrimidine-Based Analogs with Potent Anticancer Activity and Multitarget Enzyme Inhibition Supported by Docking Studies” (International Journal of Molecular Sciences, 2023).

How the values were obtained:
MCF-7 = assay: MTT cytotoxicity assay, MCF-7; format: cell-based; settings: Homo sapiens, MCF7; MTT, breast cancer cells; read-out: IC50 MCF-7
Experimental: (§1) The cytotoxic activity was assessed using the 3-(4,5-dimethylthiazol-2-yl)-2,5-diphenyl tetrazolium bromide (MTT) colorimetric assay, as reported previously [62, 63]. […] Briefly, the designated cell lines were cultured at a concentration of 5 × 10^4 cell/well in 96-well plates. The cells were incubated for 24 h under optimum conditions. Following this, the designated molecules were introduced (in serial dilutions from 0 to 50 μg/mL), and the cells were incubated for an additional 24 h. Following this, the media were withdrawn, and 100 μL of fresh medium was added. Then, 10 µL of the 12 mM MTT stock solution was administered to each well. The plates were then incubated for 4 h. Then, the cells were exposed to different compounds at the desired concentrations (0.01, 0.1, 1, 10, and 100 µM) or to 1% dimethyl sulfoxide (DMSO) for 48 and 72 h. […] Then, the optical density was measured at 590 nm with the microplate reader (Sunrise, TECAN, Inc., Morrisville, NC, USA).

HCT-116 = assay: MTT cytotoxicity assay, HCT-116; format: cell-based; settings: Homo sapiens, HCT-116, read-out: IC50 HCT-116; MTT, colon cancer cells
Experimental: as §1

HePG-2 = assay: MTT cytotoxicity assay, HePG-2; format: cell-based; settings: Homo sapiens, HepG2; MTT, liver cancer cells; read-out: IC50 HePG-2
Experimental: The cytotoxic activity was assessed using the 3-(4,5-dimethylthiazol-2-yl)-2,5-diphenyl tetrazolium bromide (MTT) colorimetric assay, as reported previously. Doxorubicin was used as a reference standard, and DMSO was used as a negative control. Briefly, the designated cell lines were cultured at a concentration of 5 × 10^4 cell/well in 96-well plates. The cells were incubated for 24 h under optimum conditions. Following this, the designated molecules were introduced (in serial dilutions from 0 to 50 μg/mL), and the cells were incubated for an additional 24 h. Following this, the media were withdrawn, and 100 μL of fresh medium was added. Then, 10 µL of the 12 mM MTT stock solution was administered to each well. The plates were then incubated for 4 h. […] An 85-μL aliquot of the media was removed from the wells, and 50 µL of DMSO was added to each well and mixed thoroughly with the pipette and incubated at 37 °C for 10 min. Then, the optical density was measured at 590 nm with the microplate reader (Sunrise, TECAN, Inc., Morrisville, NC, USA).

Topo-II = biological target: T1, Topo-II (Homo sapiens, UniProt Q02880); assay: In vitro Topo II inhibitory assay; format: biochemical
T1 construct: purchased
T1 sequence (Q02880 2-1626): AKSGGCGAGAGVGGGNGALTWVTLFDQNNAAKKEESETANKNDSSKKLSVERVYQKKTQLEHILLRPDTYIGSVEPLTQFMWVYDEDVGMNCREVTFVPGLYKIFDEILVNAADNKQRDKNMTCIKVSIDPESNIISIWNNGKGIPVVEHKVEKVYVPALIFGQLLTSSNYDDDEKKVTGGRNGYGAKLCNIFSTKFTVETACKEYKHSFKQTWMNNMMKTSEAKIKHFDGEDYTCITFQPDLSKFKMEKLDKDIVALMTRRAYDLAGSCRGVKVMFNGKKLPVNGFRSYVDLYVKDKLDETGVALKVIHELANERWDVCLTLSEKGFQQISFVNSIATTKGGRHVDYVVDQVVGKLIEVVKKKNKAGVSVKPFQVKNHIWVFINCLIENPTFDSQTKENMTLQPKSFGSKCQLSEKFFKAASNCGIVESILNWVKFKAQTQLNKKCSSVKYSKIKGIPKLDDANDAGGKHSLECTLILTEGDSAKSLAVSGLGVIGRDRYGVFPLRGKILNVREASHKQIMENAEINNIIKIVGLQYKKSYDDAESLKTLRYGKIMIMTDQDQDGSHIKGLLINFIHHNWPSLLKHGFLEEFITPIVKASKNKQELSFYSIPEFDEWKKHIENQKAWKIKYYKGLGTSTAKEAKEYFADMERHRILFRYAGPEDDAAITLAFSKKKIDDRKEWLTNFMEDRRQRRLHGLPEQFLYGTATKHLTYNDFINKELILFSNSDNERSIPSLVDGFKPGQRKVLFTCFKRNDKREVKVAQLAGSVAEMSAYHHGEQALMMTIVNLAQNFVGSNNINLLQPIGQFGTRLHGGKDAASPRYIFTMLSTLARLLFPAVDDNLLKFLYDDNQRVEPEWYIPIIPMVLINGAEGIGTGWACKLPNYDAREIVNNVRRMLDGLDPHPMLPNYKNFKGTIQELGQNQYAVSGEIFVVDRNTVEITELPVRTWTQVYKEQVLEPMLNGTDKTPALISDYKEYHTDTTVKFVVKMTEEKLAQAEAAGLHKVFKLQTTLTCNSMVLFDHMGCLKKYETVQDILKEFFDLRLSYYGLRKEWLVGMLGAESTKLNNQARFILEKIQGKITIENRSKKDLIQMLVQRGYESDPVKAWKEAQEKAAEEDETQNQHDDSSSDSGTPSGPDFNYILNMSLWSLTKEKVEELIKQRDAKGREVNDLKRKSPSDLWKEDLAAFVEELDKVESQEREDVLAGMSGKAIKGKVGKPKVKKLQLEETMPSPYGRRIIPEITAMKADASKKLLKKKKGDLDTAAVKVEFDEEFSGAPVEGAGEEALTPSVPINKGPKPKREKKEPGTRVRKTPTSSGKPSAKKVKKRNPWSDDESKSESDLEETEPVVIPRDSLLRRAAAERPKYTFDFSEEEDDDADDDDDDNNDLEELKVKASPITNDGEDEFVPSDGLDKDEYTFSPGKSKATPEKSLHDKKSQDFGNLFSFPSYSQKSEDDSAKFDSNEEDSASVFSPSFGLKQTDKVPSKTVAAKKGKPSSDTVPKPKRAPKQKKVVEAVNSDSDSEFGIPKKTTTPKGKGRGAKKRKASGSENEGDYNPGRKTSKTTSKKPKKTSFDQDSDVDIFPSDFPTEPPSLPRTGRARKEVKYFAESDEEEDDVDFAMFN
Experimental: Curve fitting was performed using GraphPad Prism.
(1 picture or pasted object on this page, not shown here)

SMILES	melting point	TOPO IiB %inh at conc 12.5 (Topo-II; conc 12.5, unit not given)	TOPO IiB %inh at conc 25 (Topo-II; conc 25, unit not given)	TOPO IiB %inh at conc 50 (Topo-II; conc 50, unit not given)	TOPO IiB %inh at conc 100 (Topo-II; conc 100, unit not given)	IC50 (MCF-7)	IC50 (HCT-116)	IC50 (HePG-2)
Cc1nc(NN=Cc2ccccc2)c2cnn(-c3ccccc3)c2n1 [Compound 5a, 4-(2-Benzylidenehydrazinyl)-6-methyl-1-phenyl-1H-pyrazolo[3,4-d]pyrimidine]	160 to 162 °C	–	–	–	–	21.1 ± 1.5 µM	11.7 ± 0.9 µM	15.1 ± 1.2 µM
Cc1nc(NN=Cc2ccc(Cl)cc2)c2cnn(-c3ccccc3)c2n1 [Compound 5c, 4-(2-(4-Chlorobenzylidene)hydrazinyl)-6-methyl-1-phenyl-1H-pyrazolo[3,4-d]pyrimidine]	233 to 235 °C	–	–	–	–	66.6 ± 3.8 µM	39.5 ± 2.6 µM	83.7 ± 4.4 µM
COc1ccc(C=NNc2nc(C)nc3c2cnn3-c2ccccc2)cc1 [Compound 5d]	227 to 229 °C	–	–	–	–	19.4 ± 1.3 µM	9.87 ± 0.7 µM	18.3 ± 1.5 µM
Cc1nc(NN2C(=O)C=CC2=O)c2cnn(-c3ccccc3)c2n1 [Compound 8, 1-((6-Methyl-1-phenyl-1H-pyrazolo[3,4-d]pyrimidin-4-yl)amino)-1H-pyrrole-2,5-dione]	–	–	–	–	–	79.5 ± 4.4 µM	66.3 ± 3.5 µM	78.5 ± 4.3 µM
CCCNC(=S)NNc1nc(C)nc2c1cnn2-c1ccccc1 [Compound 9b, 2-(6-Methyl-1-phenyl-1H-pyrazolo[3,4-d]pyrimidin-4-yl)-N-propylhydrazinecarbothioamide]	–	–	–	–	–	34.2 ± 2 µM	17.6 ± 1.3 µM	23.9 ± 1.8 µM

Now from value to molecule, other results behind:

melting point	TOPO IiB %inh at conc 12.5 (Topo-II; conc 12.5, unit not given)	TOPO IiB %inh at conc 25 (Topo-II; conc 25, unit not given)	TOPO IiB %inh at conc 50 (Topo-II; conc 50, unit not given)	TOPO IiB %inh at conc 100 (Topo-II; conc 100, unit not given)	SMILES	IC50 (MCF-7)	IC50 (HCT-116)	IC50 (HePG-2)
220 to 222 °C	–	–	–	–	COc1ccccc1C=NNc1nc(C)nc2c1cnn2-c1ccccc1 [Compound 5e, 4-(2-(2-Methoxybenzylidene)hydrazineyl)-6-methyl-1-phenyl-1H-pyrazolo[3,4-d]pyrimidine]	16.1 ± 1.1 µM	8.15 ± 0.5 µM	13.8 ± 1 µM
250 to 252 °C	–	–	–	–	Cc1nc(NN=Cc2ccc([N+](=O)[O-])cc2)c2cnn(-c3ccccc3)c2n1 [Compound 5f, 6-Methyl-4-(2-(4-nitrobenzylidene)hydrazineyl)-1-phenyl-1H-pyrazolo[3,4-d]pyrimidine]	> 100 µM	89.7 ± 4.8 µM	> 100 µM
255 to 257 °C	–	–	–	–	Cc1nc(NN=Cc2c(Cl)cccc2Cl)c2cnn(-c3ccccc3)c2n1 [Compound 5g, 4-(2-(2,6-Dichlorobenzylidene)hydrazineyl)-6-methyl-1-phenyl-1H-pyrazolo[3,4-d]pyrimidine]	> 100 µM	> 100 µM	> 100 µM
241 to 243 °C	–	–	–	–	Cc1nc(NN=CC=Cc2ccccc2)c2cnn(-c3ccccc3)c2n1 [Compound 5h, 6-Methyl-1-phenyl-4-(2-(-3-phenylallylidene)hydrazineyl)-1H-pyrazolo[3,4-d]pyrimidine]	> 100 µM	76.8 ± 4.1 µM	> 100 µM
221 to 223 °C	–	–	–	–	CC(=NNc1nc(C)nc2c1cnn2-c1ccccc1)c1ccc(N)cc1 [Compound 5j, 4-(1-(2-(6-Methyl-1-phenyl-1H-pyrazolo[3,4-d]pyrimidin-4-yl)hydrazineylidene)ethyl)aniline]	36 ± 2.4 µM	21.5 ± 1.5 µM	44.3 ± 2.9 µM
235 to 237 °C	–	–	–	–	COc1ccc(C(C)=NNc2nc(C)nc3c2cnn3-c2ccccc2)cc1 [Compound 5k, 4-(2-(1-(4-Methoxyphenyl)ethylidene)hydrazinyl)-6-methyl-1-phenyl-1H-pyrazolo[3,4-d]pyrimidine]	88.3 ± 4.7 µM	78 ± 4.2 µM	91.6 ± 5.1 µM
–	7.5%	20%	39%	69%	COc1cc([C@@H]2c3cc4c(cc3[C@@H](O[C@@H]3O[C@@H]5CO[C@@H](C)O[C@H]5[C@H](O)[C@H]3O)[C@H]3COC(=O)[C@H]23)OCO4)cc(OC)c1O [Etoposide, reference compound]	–	–	–
